Assay results taken from patent publication US20230000892A1, “Solution, Lotion, Gel, and Cream for Use to Prevent Razor Bumps” (priority 2021, published 2023).

Tested on: razor bumps
Assay: proof of concept use of acne gels, creams, suspension and lotions immediately after shaving to prevent razor bumps
Type: in vivo, human
Conditions: concentration down to at least 0.75% within the gel

clindamycin phosphate
adequacy of lower concentration for preventing razor bumps: sufficiently adequate
